Active and inactive are the calls of the source. No cut-off for these calls is given here.
Tests used:
[1] = test system: Rattus norvegicus; experiment: Gastrointestinal toxicity in Wistar rat assessed as ulcer index at 3647.7 mg/kg, po by Rainsford's cold stress method; type: organism-based; parameters: dose 3647.7 mg/kg, route oral; details: in vivo
[2] = test system: Rattus norvegicus; experiment: Antiinflammatory activity against trinitrobenzenesulfonic acid-induced colitis in Wistar rat assessed as decrease in colon to body weight ratio at 100 mg/kg, po measured 24 hrs after last dose on day 11; type: functional, organism-based; parameters: dose 100 mg/kg
[3] = test system: Rattus norvegicus; experiment: Antiinflammatory activity against trinitrobenzenesulfonic acid-induced colitis in Wistar rat at 100 mg/kg, administered rectally; type: functional, organism-based; parameters: dose 100 mg/kg
[4] = test system: Rattus norvegicus; experiment: Antiarthritic activity against Freund's adjuvant-induced arthritis in Wistar rat assessed as reduction in paw volume administered 13 days after Freund's adjuvant challenge measured on day 21; type: functional; parameters: concentration or dose not given beside the values
[5] = test system: Rattus norvegicus; experiment: Antiinflammatory activity against trinitrobenzenesulfonic acid-induced colitis in Wistar rat assessed as decrease in colonic myeloperoxidase activity at 100 mg/kg, po measured 24 hrs after last dose on day 11 by spectrometry; type: functional, organism-based; parameters: dose 100 mg/kg
[6] = Aqueous solubility of the compound; type: physicochemical; details: aqueous medium
[7] = Partition coefficient, log P in n-octanol/phosphate buffer of pH 7.4; type: physicochemical
[8] = Stability in 0.05 M hydrochloric acid buffer of pH 1.2; type: physicochemical
[9] = Stability in rat feces assessed as half life at 250 ug/mL by UV spectrophotometry in presence of azo reductase; type: ADME, tissue-based
[10] = Stability in rat feces assessed as cumulated 5-aminosalicylic acid release measured for 6 to 7 hrs by UV spectrophotometry in presence of azo reductase; type: ADME, tissue-based
[11] = test system: Rattus norvegicus; experiment: Gastrointestinal toxicity in Wistar rat assessed as ulcer index at 1154.3 mg/kg, po by Rainsford's cold stress method; type: organism-based; parameters: dose 1154.3 mg/kg, route oral; details: in vivo
[12] = test system: Rattus norvegicus; experiment: Gastrointestinal toxicity in Wistar rat assessed as ulcer index at 2829 mg/kg, po by Rainsford's cold stress method; type: organism-based; parameters: dose 2829 mg/kg, route oral; details: in vivo
[13] = Stability in phosphate buffer of pH 7.4 assessed as drug release after 7 hrs; type: physicochemical; details: pH 7.4, 7 h
[14] = test system: Rattus norvegicus; experiment: Gastrointestinal toxicity in Wistar rat assessed as ulcer index at 3050 mg/kg, po by Rainsford's cold stress method; type: organism-based; parameters: dose 3050 mg/kg, route oral; details: in vivo
[15] = test system: Rattus norvegicus; experiment: Antiinflammatory activity against trinitrobenzenesulfonic acid-induced colitis in Wistar rat assessed as decrease in appearance of mucosal abscess at 100 mg/kg administered rectally measured 24 hrs after last dose on day 11 by haematoxylin/eosin staining; type: functional, organism-based; parameters: dose 100 mg/kg
[16] = test system: Rattus norvegicus; experiment: Antiinflammatory activity against trinitrobenzenesulfonic acid-induced colitis in Wistar rat assessed as decrease in inflammatory cell infiltration at 100 mg/kg administered rectally measured 24 hrs after last dose on day 11 by haematoxylin/eosin staining in presence of sulfasalazine; type: functional, organism-based; parameters: dose 100 mg/kg
[17] = test system: Rattus norvegicus; experiment: Antiinflammatory activity against trinitrobenzenesulfonic acid-induced colitis in Wistar rat at 100 mg/kg, po; type: functional, organism-based; parameters: dose 100 mg/kg
[18] = test system: Rattus norvegicus; experiment: Antiinflammatory activity against trinitrobenzenesulfonic acid-induced colitis in Wistar rat at 100 mg/kg, administered rectally in presence of 5-aminosalicylic acid; type: functional, organism-based; parameters: dose 100 mg/kg
[19] = test system: Rattus norvegicus; experiment: Antiinflammatory activity against trinitrobenzenesulfonic acid-induced colitis in Wistar rat assessed as decrease in inflammatory cell infiltration at 100 mg/kg, po measured 24 hrs after last dose on day 11 by haematoxylin/eosin staining; type: functional, organism-based; parameters: dose 100 mg/kg
[20] = test system: Rattus norvegicus; experiment: Antiinflammatory activity against trinitrobenzenesulfonic acid-induced colitis in Wistar rat assessed as decrease in appearance of mucosal abscess at 100 mg/kg, po measured 24 hrs after last dose on day 11 by haematoxylin/eosin staining; type: functional, organism-based; parameters: dose 100 mg/kg
[21] = test system: Rattus norvegicus; experiment: Antiinflammatory activity against trinitrobenzenesulfonic acid-induced colitis in Wistar rat assessed as decrease in appearance of mucosal abscess at 100 mg/kg administered rectally measured 24 hrs after last dose on day 11 by haematoxylin/eosin staining in presence of sulfasalazine; type: functional, organism-based; parameters: dose 100 mg/kg
[22] = test system: Rattus norvegicus; experiment: Antiinflammatory activity against trinitrobenzenesulfonic acid-induced colitis in Wistar rat assessed as decrease in inflammatory cell infiltration at 100 mg/kg administered rectallysmeasured 24 hrs after last dose on day 11 by haematoxylin/eosin staining; type: functional, organism-based; parameters: dose 100 mg/kg
[23] = test system: Rattus norvegicus; experiment: Gastrointestinal toxicity in Wistar rat assessed as ulcer index at 3000 mg/kg, po by Rainsford's cold stress method; type: organism-based; parameters: dose 3000 mg/kg, route oral; details: in vivo

| SMILES | Activity [2] | Activity [3] | Activity [4] [%] | Activity [5] | solubility [6] [mg/mL] | logD [7] | Stability [8] | half-life at 250 ug/mL [9] [min] | Activity [10] [%] | Activity [15] | Activity [16] | Activity [18] | Activity [20] | further results |
| --- | --- | --- | --- | --- | --- | --- | --- | --- | --- | --- | --- | --- | --- | --- |
| O=C([O-])c1cc(/N=N/[C@@H](Cc2ccc(O)cc2)C(=O)[O-])ccc1O.[Na+].[Na+] | Active | Active | 62 | Active | 260 | 0.35 | Stable | 140 | 87 | – | – | – | – | UI [1]: 10.76 |
| Nc1ccc(O)c(C(=O)O)c1 [MESALAMINE] | – | – | 47 | – | – | – | – | – | – | – | – | – | – | UI [11]: 60.03 |
| O=C([O-])c1cc(/N=N/[C@@H](Cc2c[nH]c3ccccc23)C(=O)[O-])ccc1O.[Na+].[Na+] | Active | Active | 62 | Active | 280 | 0.26 | Stable | 144 | 88 | – | – | – | – | UI [12]: 13; Activity [13]: 15% |
| O=C([O-])c1cc(/N=N/[C@H](Cc2ccccc2)C(=O)[O-])ccc1O.[Na+].[Na+] | Active | Active | 62 | Active | 250 | 0.3 | Stable | 160 | 85 | – | – | – | – | UI [14]: 11.3; Activity [13]: 15% |
| Nc1ccc(C(=O)O)c(O)c1 [AMINOSALICYLIC ACID] | – | – | – | – | – | – | – | – | – | – | – | – | – | UI [11]: 69.61 |
| N[C@@H](Cc1ccc(O)cc1)C(=O)O | – | – | – | – | – | – | – | – | – | Active | Active | Active | inactive | Activity [17]: inactive; Activity [19]: inactive |
| N[C@H](Cc1ccccc1)C(=O)O | – | Active | – | – | – | – | – | – | – | Active | Active | Active | Active | Activity [21]: Active; Activity [22]: Active |
| N[C@@H](Cc1c[nH]c2ccccc12)C(=O)O | – | – | – | – | – | – | – | – | – | Active | Active | Active | Active | Activity [21]: Active; Activity [17]: Active; Activity [19]: Active; Activity [22]: Active |
| O=C(O)c1cc(/N=N/c2ccc(S(=O)(=O)Nc3ccccn3)cc2)ccc1O [SULFASALAZINE] | Active | Active | 73 | Active | – | – | – | – | – | – | – | – | – | UI [23]: 9 |
